Laboratory results reported in patent US12479817B2, “Substituted 3-(1-oxoisoindolin-2-yl)piperidine-2,6-dione derivatives and uses thereof” (Novartis AG, priority 2019, dated 2025).

Legend:
IKZF2 = biological target: T1, IKZF2 (Homo sapiens, UniProt Q96SW2+Q9UKS7); assay: Prolabel quantification of IKZF2 protein levels in 293GT cells; format: cell-based; settings: Pro-label assay in 293GT cells; for AC50: read-out: IKZF2 Degradation AC50; for IKZF2 Degradation (%): % degradation is at 10 μM
T1 construct: expressed in transfected cells
Protocol: (§1) The Prolabel system from DiscoverX was used to develop high-throughput and quantitative assays to measure changes in IKZF1, IKZF2 and GSPT1 protein levels in response to compounds. The prolabel tag was derived from the alpha fragment of beta galactosidase and has the following protein sequence: mssnslavvlqadwenpgvtqlnrlaahppfaswrnseeartdrpsqqlislnge. The complementary fragment of beta-galactosidase (from DiscoverX), is added to the prolabel tag to form an active beta galactosidase enzyme whose activity can be precisely measured. In this way, the levels of a fusion protein with the prolabel tag can be quantified in cell lysates.
(§2) Lentiviral vectors, based on the Invitrogen pLenti6.2/V5 DEST backbone, were constructed that placed the prolabel tag upstream of IKZF1, IKZF2 or GSPT1 and expressed the fusion protein from a CMV promoter.
(§3) To ensure moderate and consistent expression of the prolabel fusion proteins across all cells in the population, stable cell lines were constructed from cells expressing a single copy of the construct. Lentivirus packaged with the constructs was made using the Virapower kit from Invitrogen.
(§4) The levels of prolabel tagged fusion proteins in compound treated cell lines were measured as follows:
(§5) Day 1, Cells were diluted to 1.0×10^6 cells/ml in normal growth medium. 17.5 μL, of cells were plated in each well of a solid white 384 well plate. Plates were incubated overnight in a 37° C. tissue culture incubator.
(§6) Day 2, Serial dilutions of compounds were made in 384 well plates from 10 mM stocks. 15 μL, of DMSO was added to each well of a 384 well plate. In the first column, 15 μL of stock compound was added. The solution was mixed and 15 μL was transferred to the next column. This was repeated until 20 two-fold dilutions were prepared. 2.5 μL, of diluted compounds were transferred into 60 μL of cell culture medium in another 384 well plate, and mixed well. 2.5 μL of this mixture was added to the plated cells. The final DMSO concentration was 0.5% and the highest concentration of compound was 50 μM. Plates were incubated overnight (e.g., about 14 h, 18 h, or 24 h) in a 37° C. tissue culture incubator.
(§7) Day 3, Plates were removed from the incubator and allowed to equilibrate at rt for 30 minutes. Prolabel substrate (DiscoverX PathHunter Prolabel Detection Kit, User manual: 93-0180) was added as described by the manufacturers protocols. Plates were incubated at rt for three hours and luminescence was read using an Envision reader (Perkin Elmer) Data was analyzed and visualized using the Spotfire software package.

IKZF1 = biological target: T2, IKZF1 (Homo sapiens, UniProt Q13422+Q96SW2); assay: Prolabel quantification of IKZF1 protein levels in 293GT cells; format: cell-based; settings: Pro-label assay in 293GT cells; for AC50: read-out: IKZF1 Degradation AC50; for IKZF1 Degradation (%): % degradation is at 10 μM
T2 construct: expressed in transfected cells
Protocol: as §1, §2, §3, §4, §5, §6, §7

T2 sequence (Q13422 whole entry): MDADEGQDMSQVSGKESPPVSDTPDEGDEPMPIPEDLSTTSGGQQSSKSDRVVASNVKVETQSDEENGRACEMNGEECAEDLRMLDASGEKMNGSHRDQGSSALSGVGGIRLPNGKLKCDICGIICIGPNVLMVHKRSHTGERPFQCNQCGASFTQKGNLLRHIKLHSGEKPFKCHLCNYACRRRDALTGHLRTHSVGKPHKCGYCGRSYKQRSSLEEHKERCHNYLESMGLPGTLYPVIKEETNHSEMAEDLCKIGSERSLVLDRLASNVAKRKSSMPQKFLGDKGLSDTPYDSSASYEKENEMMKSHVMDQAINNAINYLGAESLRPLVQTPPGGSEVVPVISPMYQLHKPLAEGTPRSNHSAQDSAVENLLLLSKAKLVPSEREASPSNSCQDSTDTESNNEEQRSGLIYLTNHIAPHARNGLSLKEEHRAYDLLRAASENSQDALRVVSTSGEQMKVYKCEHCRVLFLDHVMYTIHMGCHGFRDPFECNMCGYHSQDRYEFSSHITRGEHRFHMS
T2 sequence (Q96SW2 whole entry): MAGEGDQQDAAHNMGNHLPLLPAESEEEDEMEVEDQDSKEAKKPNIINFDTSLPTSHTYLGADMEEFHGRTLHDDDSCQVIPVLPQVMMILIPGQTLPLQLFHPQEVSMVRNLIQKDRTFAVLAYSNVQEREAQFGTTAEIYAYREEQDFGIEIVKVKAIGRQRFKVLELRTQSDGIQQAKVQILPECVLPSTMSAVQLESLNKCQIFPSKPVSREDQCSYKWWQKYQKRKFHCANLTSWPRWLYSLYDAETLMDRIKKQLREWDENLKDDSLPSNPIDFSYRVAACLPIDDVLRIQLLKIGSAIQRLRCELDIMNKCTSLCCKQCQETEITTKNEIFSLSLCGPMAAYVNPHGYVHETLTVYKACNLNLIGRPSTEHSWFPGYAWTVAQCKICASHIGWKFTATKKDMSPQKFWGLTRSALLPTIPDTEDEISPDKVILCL
T2 sequence (Q16531 whole entry partner): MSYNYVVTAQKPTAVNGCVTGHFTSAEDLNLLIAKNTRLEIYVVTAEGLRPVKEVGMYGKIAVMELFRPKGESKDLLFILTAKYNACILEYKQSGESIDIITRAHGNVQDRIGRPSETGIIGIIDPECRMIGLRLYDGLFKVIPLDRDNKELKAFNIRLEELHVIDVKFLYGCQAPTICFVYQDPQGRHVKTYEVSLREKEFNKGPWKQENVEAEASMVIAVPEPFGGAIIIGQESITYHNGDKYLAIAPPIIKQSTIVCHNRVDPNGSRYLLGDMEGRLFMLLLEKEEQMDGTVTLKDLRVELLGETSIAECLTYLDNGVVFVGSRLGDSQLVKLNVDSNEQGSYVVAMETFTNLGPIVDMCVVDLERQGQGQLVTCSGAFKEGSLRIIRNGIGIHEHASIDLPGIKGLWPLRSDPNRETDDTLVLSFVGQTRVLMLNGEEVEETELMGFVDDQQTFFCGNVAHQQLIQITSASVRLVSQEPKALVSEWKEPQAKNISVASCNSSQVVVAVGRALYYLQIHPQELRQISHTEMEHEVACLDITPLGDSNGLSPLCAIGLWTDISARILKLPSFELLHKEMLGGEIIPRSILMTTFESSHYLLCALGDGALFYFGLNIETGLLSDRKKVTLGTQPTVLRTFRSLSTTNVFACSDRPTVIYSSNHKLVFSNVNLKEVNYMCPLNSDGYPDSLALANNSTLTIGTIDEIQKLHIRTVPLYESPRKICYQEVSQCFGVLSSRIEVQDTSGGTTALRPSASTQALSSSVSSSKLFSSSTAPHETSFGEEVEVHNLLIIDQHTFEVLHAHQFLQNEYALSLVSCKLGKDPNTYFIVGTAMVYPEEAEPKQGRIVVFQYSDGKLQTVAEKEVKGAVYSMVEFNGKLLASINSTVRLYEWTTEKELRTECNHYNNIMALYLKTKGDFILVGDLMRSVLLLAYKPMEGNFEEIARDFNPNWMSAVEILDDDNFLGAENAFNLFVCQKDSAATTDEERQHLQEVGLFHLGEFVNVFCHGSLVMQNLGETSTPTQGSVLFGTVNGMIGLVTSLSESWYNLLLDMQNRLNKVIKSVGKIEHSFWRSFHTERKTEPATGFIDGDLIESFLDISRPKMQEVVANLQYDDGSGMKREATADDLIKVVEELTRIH
T1 sequence (Q9UKS7 whole entry): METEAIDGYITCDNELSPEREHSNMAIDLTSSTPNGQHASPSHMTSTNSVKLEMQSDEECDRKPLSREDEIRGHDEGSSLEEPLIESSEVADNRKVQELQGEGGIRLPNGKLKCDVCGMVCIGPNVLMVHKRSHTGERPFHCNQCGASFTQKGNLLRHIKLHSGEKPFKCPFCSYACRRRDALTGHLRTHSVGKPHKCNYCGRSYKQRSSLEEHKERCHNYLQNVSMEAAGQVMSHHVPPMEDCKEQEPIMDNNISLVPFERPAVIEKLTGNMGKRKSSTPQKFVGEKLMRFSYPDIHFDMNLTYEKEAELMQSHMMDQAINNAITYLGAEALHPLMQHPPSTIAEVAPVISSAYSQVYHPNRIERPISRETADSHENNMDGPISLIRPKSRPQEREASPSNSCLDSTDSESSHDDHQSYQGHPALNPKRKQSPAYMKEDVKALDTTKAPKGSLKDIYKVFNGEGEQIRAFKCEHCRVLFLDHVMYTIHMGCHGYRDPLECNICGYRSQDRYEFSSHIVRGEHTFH
T1 sequence (Q96SW2 whole entry): as the sequence (Q96SW2 whole entry) above
T1 sequence (Q16531 whole entry partner): as the sequence (Q16531 whole entry partner) above

Compound: O=C1CCC(N2Cc3cc(C4CCN(Cc5ccccc5)CC4)ncc3C2=O)C(=O)N1 (stereo not drawn) [Compound I-2, 3-(6-(1-benzylpiperidin-4-yl)-3-oxo-1,3-dihydro-2H-pyrrolo[3,4-c]pyridin-2-yl)piperidine-2,6-dione]
- AC50 (IKZF2): > 30000 nM
- AC50 (IKZF1): > 30000 nM

Compound: Nc1cccc2c1C(=O)N(C1CCC(=O)NC1=O)C2=O (stereo not drawn) [Pomalidomide, 4-amino-2-(2,6-dioxopiperidin-3-yl)isoindoline-1,3-dione, reference compound]
- IKZF1 Degradation (%) (IKZF1): 80%

Compound: COc1c(C2=CCN(Cc3ccccc3)CC2)ccc2c1CN(C1CCC(=O)NC1=O)C2=O (stereo not drawn) [Compound I-20, 3-(5-(1-benzyl-1,2,3,6-tetrahydropyridin-4-yl)-4-methoxy-1-oxoisoindolin-2-yl)piperidine-2,6-dione]
- IKZF2 Degradation (%) (IKZF2): 42%
- AC50 (IKZF2): 200 nM
- IKZF1 Degradation (%) (IKZF1): 40%
- AC50 (IKZF1): 66 nM

Compound: CO[C@H]1CC[C@H](CN2CCC(c3ccc4c(c3Cl)CN(C3CCC(=O)NC3=O)C4=O)CC2)CC1 (stereo partly drawn) [Compound I-17, 3-(4-chloro-5-(1-(((1r,4r)-4-methoxycyclohexyl)methyl)piperidin-4-yl)-1-oxoisoindolin-2-yl)piperidine-2,6-dione]
- IKZF2 Degradation (%) (IKZF2): 30%
- AC50 (IKZF2): 75 nM
- IKZF1 Degradation (%) (IKZF1): 40%
- AC50 (IKZF1): 130 nM

Compound: O=C1CCC(N2Cc3c(ccc(C4CCN(Cc5ccccc5)CC4)c3F)C2=O)C(=O)N1 (stereo not drawn) [Compound I-3, 3-(5-(1-benzylpiperidin-4-yl)-4-fluoro-1-oxoisoindolin-2-yl)piperidine-2,6-dione]
- IKZF2 Degradation (%) (IKZF2): 72%
- AC50 (IKZF2): 6 nM
- AC50 (IKZF1): > 30000 nM

Compound: O=C1CCC(N2Cc3cc(C4CCN(Cc5ccncc5)CC4)c(F)cc3C2=O)C(=O)N1 (stereo not drawn) [Compound I-16, 3-(6-fluoro-1-oxo-5-(1-(pyridin-4-ylmethyl)piperidin-4-yl)isoindolin-2-yl)piperidine-2,6-dione]
- IKZF2 Degradation (%) (IKZF2): 42%
- AC50 (IKZF2): 560 nM
- IKZF1 Degradation (%) (IKZF1): 22%
- AC50 (IKZF1): 7600 nM

Compound: O=C1CCC(N2Cc3nc(C4CCN(Cc5ccccc5)CC4)ccc3C2=O)C(=O)N1 (stereo not drawn) [Compound I-1, 3-(2-(1-benzylpiperidin-4-yl)-5-oxo-5,7-dihydro-6H-pyrrolo[3,4-b]pyridin-6-yl)piperidine-2,6-dione]
- IKZF2 Degradation (%) (IKZF2): 33%
- AC50 (IKZF2): 260 nM
- AC50 (IKZF1): > 30000 nM

Compound: Cc1c(C2CCN(Cc3ccccc3)CC2)ccc2c1CN(C1CCC(=O)NC1=O)C2=O (stereo not drawn) [Compound I-5, 3-(5-(1-benzylpiperidin-4-yl)-4-methyl-1-oxoisoindolin-2-yl)piperidine-2,6-dione]
- IKZF2 Degradation (%) (IKZF2): 59%
- AC50 (IKZF2): 110 nM
- AC50 (IKZF1): > 30000 nM
